# Values quoted from earlier work in patent US20250228797A1, “SYNERGIC AND STABLE PHARMACEUTICAL COMPOSITION OF AN NSAID AND AN OPIOID ANALGESIC FOR PAIN AND INFLAMMATION” (LABORATORIOS SILANES, S.A. DE C.V., priority 2024, published 2025).
# Key:
# [1] = tested on: moderate to severe post-operatory pain; conditions: intravenous or intramuscular
# [2] = in vivo
smiles,measurement,setting,value
"COc1cccc([C@@]2(O)CCCC[C@@H]2CN(C)C)c1 [tramadol, (1R,2R)-2-[(dimethylamino)methyl]-1-(3-methoxyphenyl)cyclohexan-1-ol]",Analgesic potency relative to nalbuphine,[1],one-fifth
same,Analgesic potency relative to pethidine (meperidine),[1],equivalent
same,Incidence of serious adverse reactions,[2],less than 1%
